SMILES strings stand for the structures. pIC50: −log10 of the molar value.

In experiment [1] the test system is CWR22R. In words: Antiproliferative activity against human 22Rv1 cells incubated for 4 days by CCK-8 assay. The following applies: 22Rv1, 96 h. The class given is functional, cell-based.
Experiment [2] addresses T1, Protein cereblon/Androgen receptor (Homo sapiens, UniProt P10275+Q96SW2). In words: PROTAC activity at full length Androgen receptor/CRBN in human 22Rv1 cells assessed as induction of full length Androgen receptor degradation at 5 uM incubated for 24 hrs by Western blot analysis relative to control. The format is cell-based. A general note: Immunoblotting shows a protein as a band on a membrane.

The test system of experiment [3] is Protein cereblon/Androgen receptor (Homo sapiens), P10275+Q96SW2 [UNDEFINED MUTATION]. In words: PROTAC activity at AR-V7/CRBN in human 22Rv1 cells assessed as induction of AR-V7 degradation at 1 uM incubated for 24 hrs by Western blot analysis relative to control. The class given is cell-based. The following applies: CWR22R.
Experiment [4] addresses T1, Protein cereblon/Androgen receptor. In words: PROTAC activity at full length Androgen receptor/CRBN in human 22Rv1 cells assessed as induction of full length Androgen receptor degradation at 1 uM incubated for 24 hrs by Western blot analysis relative to control. The class given is cell-based.
Experiment [5] concerns Protein cereblon/Androgen receptor (Homo sapiens), P10275+Q96SW2 [UNDEFINED MUTATION]. In words: PROTAC activity at AR-V7/CRBN in human 22Rv1 cells assessed as induction of AR-V7 degradation at 5 uM incubated for 24 hrs by Western blot analysis relative to control. The format is cell-based. To be noted: CWR22R.
The test system of experiment [6] is CWR22R. In words: Induction of cell cycle arrest in human 22Rv1 cells assessed as accumulation of cells at S phase at 100 nM incubated for 24 hrs by PI staining based flow cytometry analysis (reference value: 28.73%). The class given is functional.
The test system of experiment [7] is CWR22R. The experiment in a line: Induction of apoptosis in human 22Rv1 cells assessed as early apoptotic cells at 100 nM incubated for 48 hrs by Annexin V/FITC staining based flow cytometry analysis (reference value: 2.08 %). The class given is functional.
Experiment [8] has as its system CWR22R. The experiment in a line: Induction of cell cycle arrest in human 22Rv1 cells assessed as accumulation of cells at G2/M phase at 100 nM incubated for 24 hrs by PI staining based flow cytometry analysis (reference value: 8.61%). The format is functional. In general terms: A flow cytometer gives signals particle by particle.
Experiment [9] deals with CWR22R. The experiment in a line: Induction of apoptosis in human 22Rv1 cells assessed as necrotic cells at 100 nM incubated for 48 hrs by Annexin V/FITC staining based flow cytometry analysis (reference value: 2.31 %). The class given is functional.
Experiment [10] deals with CWR22R. In words: Inhibition of colony formation in human 22Rv1 cells assessed as reduction in colony formation incubated for 14 days. The format is functional, cell-based. The following applies: dose 1-100 nM, time 14.0 day.
Experiment [11] has as its system CWR22R. The experiment in a line: Induction of apoptosis in human 22Rv1 cells assessed as late apoptotic cells at 100 nM incubated for 48 hrs by Annexin V/FITC staining based flow cytometry analysis (reference value: 1.12 %). The format is functional.
Experiment [12] concerns CWR22R. In words: Induction of cell cycle arrest in human 22Rv1 cells assessed as accumulation of cells at G0/G1 phase at 100 nM incubated for 24 hrs by PI staining based flow cytometry analysis (reference value: 62.66%). The class given is functional.
Experiment [13] has as its system CWR22R. The experiment in a line: Induction of apoptosis in human 22Rv1 cells assessed as viable cells at 100 nM incubated for 48 hrs by Annexin V/FITC staining based flow cytometry analysis (reference value: 94.49%). The class given is functional. The following applies: read-out: Activity.

T1 sequence (P10275 whole entry, looked up): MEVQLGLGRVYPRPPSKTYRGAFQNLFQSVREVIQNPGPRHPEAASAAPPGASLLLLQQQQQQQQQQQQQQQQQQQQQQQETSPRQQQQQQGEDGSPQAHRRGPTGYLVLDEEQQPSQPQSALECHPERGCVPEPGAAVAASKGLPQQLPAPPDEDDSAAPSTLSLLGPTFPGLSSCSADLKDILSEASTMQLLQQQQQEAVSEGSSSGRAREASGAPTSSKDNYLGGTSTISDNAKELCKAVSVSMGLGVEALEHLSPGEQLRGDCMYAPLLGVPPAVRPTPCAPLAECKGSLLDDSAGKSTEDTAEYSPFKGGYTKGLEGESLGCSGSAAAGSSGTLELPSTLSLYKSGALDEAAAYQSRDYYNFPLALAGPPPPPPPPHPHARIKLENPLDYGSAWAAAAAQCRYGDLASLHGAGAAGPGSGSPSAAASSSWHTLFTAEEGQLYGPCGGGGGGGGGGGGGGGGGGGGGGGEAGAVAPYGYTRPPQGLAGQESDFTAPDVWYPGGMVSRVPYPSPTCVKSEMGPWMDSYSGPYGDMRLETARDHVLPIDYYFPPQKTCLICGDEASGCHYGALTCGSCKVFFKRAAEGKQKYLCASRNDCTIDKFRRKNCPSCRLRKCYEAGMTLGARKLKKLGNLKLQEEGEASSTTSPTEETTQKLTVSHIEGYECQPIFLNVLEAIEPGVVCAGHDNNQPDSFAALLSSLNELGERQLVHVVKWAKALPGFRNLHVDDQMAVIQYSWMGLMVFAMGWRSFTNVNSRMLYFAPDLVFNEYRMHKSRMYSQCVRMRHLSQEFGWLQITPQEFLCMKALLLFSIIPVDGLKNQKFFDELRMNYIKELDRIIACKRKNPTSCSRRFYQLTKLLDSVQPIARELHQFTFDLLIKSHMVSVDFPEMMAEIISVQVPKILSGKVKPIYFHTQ
T1 sequence (Q96SW2 whole entry, looked up): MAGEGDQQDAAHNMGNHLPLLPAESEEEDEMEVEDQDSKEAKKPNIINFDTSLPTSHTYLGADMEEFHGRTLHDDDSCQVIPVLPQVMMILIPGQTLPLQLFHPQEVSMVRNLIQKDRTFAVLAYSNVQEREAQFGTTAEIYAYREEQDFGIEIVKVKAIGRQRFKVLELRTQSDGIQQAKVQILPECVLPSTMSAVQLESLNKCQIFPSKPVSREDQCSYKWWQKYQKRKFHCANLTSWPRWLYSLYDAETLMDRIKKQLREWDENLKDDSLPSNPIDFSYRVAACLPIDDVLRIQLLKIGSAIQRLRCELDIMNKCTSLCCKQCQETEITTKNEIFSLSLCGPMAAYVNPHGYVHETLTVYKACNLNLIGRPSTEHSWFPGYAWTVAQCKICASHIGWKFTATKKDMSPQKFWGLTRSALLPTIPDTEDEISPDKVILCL
Chain of Protein cereblon/Androgen receptor (Homo sapiens), P10275+Q96SW2 [UNDEFINED MUTATION] (P10275 whole entry, looked up, change not shown): as the sequence (P10275 whole entry, looked up) above
Chain of Protein cereblon/Androgen receptor (Homo sapiens), P10275+Q96SW2 [UNDEFINED MUTATION] (Q96SW2 whole entry, looked up, change not shown): as the sequence (Q96SW2 whole entry, looked up) above

Consider `CC(C)(c1ccc(OCCCNc2cccc3c2C(=O)N(C2CCC(=O)NC2=O)C3=O)cc1)c1ccc(OCC(O)CCl)cc1` (stereo not drawn), for which the pIC50 with CWR22R [1] was 5.01. Also, the Activity in experiment [2] was found to be 58.3%; in experiment [3] it was 58.7%; in experiment [4], 52.1%; in experiment [5], 83.1%.
With `CC(C)(c1ccc(OC[C@H](O)CO)cc1)c1ccc(OC[C@H](O)CCl)cc1`, the Activity in the experiment with CWR22R [6] was 38.87%; in the experiment on CWR22R [7], 13.9%; in the experiment on CWR22R [8], 11.07%; in the experiment with CWR22R [9] it was 0.78%; in the experiment on CWR22R [11], 4.6%; in [2] it was < 10%. Also, the Activity in [3] was < 10%; in experiment [4], < 10%; with CWR22R [12], 50.06%; in experiment [5] it was < 10%. In the experiment on CWR22R [1], the pIC50 is < 4.70. The inhibition entry in the experiment with CWR22R [10] is “Weak_effect”. In addition, the viability at 0.1 µM in the experiment on CWR22R [13] came to 80.7%.
As for `CC(C)(c1ccc(OCC(=O)NCCCNc2ccc3c(c2)C(=O)N(C2CCC(=O)NC2=O)C3=O)cc1)c1ccc(OCC(O)CCl)cc1` (stereo not drawn), the negative logarithm of the IC50 (pIC50) in the experiment on CWR22R [1] was < 4.70. For the same molecule, the Activity in experiment [2], in experiment [3], in experiment [4] and in [5] was < 10% in each case.
Regarding `CC(C)(c1ccc(OCC(=O)NCCCCNc2ccc3c(c2)C(=O)N(C2CCC(=O)NC2=O)C3=O)cc1)c1ccc(OCC(O)CCl)cc1` (stereo not drawn), the pIC50 in the experiment with CWR22R [1] is < 4.70. Also, the Activity in [2], in experiment [3], in experiment [4] and in experiment [5] was < 10% each time.
Take `CC(C)(c1ccc(OCC(=O)N2CCC(CNc3ccc4c(c3)C(=O)N(C3CCC(=O)NC3=O)C4=O)CC2)cc1)c1ccc(OCC(O)CCl)cc1` (stereo not drawn): in the experiment on CWR22R [1], the pIC50 is 4.82. Also, the Activity in experiment [2] was 69.6%; in [3], < 10%; in [4], < 10%; in [5], 79.9%.
For the molecule `CC(C)(c1ccc(OCC(=O)NCCCNc2cccc3c2C(=O)N(C2CCC(=O)NC2=O)C3=O)cc1)c1ccc(OCC(O)CCl)cc1` (stereo not drawn), in the experiment on CWR22R [1], the pIC50 is 5.95. Besides, the Activity in [2] was 91.1%; in [3], 80.1%; in [4], 88.1%; in experiment [5], 93.6%.
As for `CC(C)(c1ccc(OCCCCCCNc2ccc3c(c2)C(=O)N(C2CCC(=O)NC2=O)C3=O)cc1)c1ccc(OCC(O)CCl)cc1` (stereo not drawn), in the experiment with CWR22R [1], the pIC50 is 5.66. In addition, the Activity in experiment [2] is < 10%; in experiment [3] it was 74.7%; in experiment [4], 90%; in experiment [5], 21.2%.
In the experiment with CWR22R [1], `CC(C)(c1ccc(OCC(=O)NCCCNc2cccc3c2C(=O)N(C2CCC(=O)NC2=O)C3=O)cc1)c1ccc(OCc2cccc(N3CCOCC3)n2)cc1` (stereo not drawn) had a pIC50 of 5.13. The Activity in experiment [2] is 78.6%; in [3], < 10%; in experiment [4], 22.1%; in experiment [5] it was 55.5%.
The matching figures for `CC(C)(c1ccc(OCC(=O)NC2CCN(c3ccc4c(c3)C(=O)N(C3CCC(=O)NC3=O)C4=O)CC2)cc1)c1ccc(OCC(O)CCl)cc1` (stereo not drawn): 5.44, 45.2%, 68.8%, 75.2% and 71.4%.
The like results for `CC(C)(c1ccc(OCC(=O)NC2CN(c3ccc4c(c3)C(=O)N(C3CCC(=O)NC3=O)C4=O)C2)cc1)c1ccc(OCC(O)CCl)cc1` (stereo not drawn) were, in that order, < 4.70, 22.3%, 62.1%, < 10% and 69.8%.
The like results for `CC(C)(c1ccc(OCC(=O)NCCNc2ccc3c(c2)C(=O)N(C2CCC(=O)NC2=O)C3=O)cc1)c1ccc(OCC(O)CCl)cc1` (stereo not drawn) were, in that order, < 4.70, < 10%, < 10%, < 10% and < 10%.
Consider `CC(C)(c1ccc(OCc2cccc(N3CCOCC3)n2)cc1)c1ccc(OCC2CCN(c3cccc4c3C(=O)N(C3CCC(=O)NC3=O)C4=O)CC2)cc1` (stereo not drawn), for which, in the experiment on CWR22R [1], the pIC50 was < 4.70. Also, the Activity in [2], in experiment [3], in experiment [4] and in experiment [5] was < 10% throughout.
In turn, `CC(C)(c1ccc(OCC(=O)NCCCCCCNc2ccc3c(c2)C(=O)N(C2CCC(=O)NC2=O)C3=O)cc1)c1ccc(OCC(O)CCl)cc1` (stereo not drawn) had a pIC50 with CWR22R [1] of 4.94. The Activity is 72.1% in [2], 32.2% in [3], 84.1% in experiment [4] and < 10% in experiment [5].
`CC(C)(c1ccc(OCC(=O)NC2CN(c3cccc4c3C(=O)N(C3CCC(=O)NC3=O)C4=O)C2)cc1)c1ccc(OCC(O)CCl)cc1` (stereo not drawn) showed a pIC50 in the experiment with CWR22R [1] of 5.93. Besides, the Activity in experiment [2] was 89%; in experiment [3], 67.7%; in experiment [4], 80.1%; in experiment [5], 88.2%.
The matching figures for `CC(C)(c1ccc(OCCCCNc2ccc3c(c2)C(=O)N(C2CCC(=O)NC2=O)C3=O)cc1)c1ccc(OCC(O)CCl)cc1` (stereo not drawn): 5.51, 81.1%, 55.1%, 88.1% and 23.6%.
In the experiment on CWR22R [1], `CC(C)(c1ccc(OCC(=O)NCCOCCOCCOCCNc2cccc3c2C(=O)N(C2CCC(=O)NC2=O)C3=O)cc1)c1ccc(OCc2cccc(N3CCOCC3)n2)cc1` (stereo not drawn) gave a pIC50 of 4.95. Besides, the Activity in [2] was 83.5%; in experiment [3], < 10%; in experiment [4], 42.5%; in experiment [5], 40%.
The like results for `CC(C)(c1ccc(OCC(=O)NCCN2CCN(c3cccc4c3C(=O)N(C3CCC(=O)NC3=O)C4=O)CC2)cc1)c1ccc(OCc2cccc(N3CCOCC3)n2)cc1` (stereo not drawn) were, in that order, < 4.70, < 10%, < 10%, < 10% and < 10%.
The like results for `CC(C)(c1ccc(OCC(=O)NCCCCCNc2ccc3c(c2)C(=O)N(C2CCC(=O)NC2=O)C3=O)cc1)c1ccc(OCC(O)CCl)cc1` (stereo not drawn) were, in that order, < 4.70, < 10%, < 10%, < 10% and < 10%.
The matching figures for `CC(C)(c1ccc(OCC(=O)N2CCC(N3CCN(c4ccc5c(c4)C(=O)N(C4CCC(=O)NC4=O)C5=O)CC3)CC2)cc1)c1ccc(OCC(O)CCl)cc1` (stereo not drawn): < 4.70, < 10%, 33.2%, < 10% and < 10%.
For `CC(C)(c1ccc(OCCCCNc2cccc3c2C(=O)N(C2CCC(=O)NC2=O)C3=O)cc1)c1ccc(OCC(O)CCl)cc1` (stereo not drawn), the pIC50 in the experiment on CWR22R [1] is 5.04. Also, the Activity is 31.3% in experiment [2], 78.1% in [3], < 10% in [4] and 89.3% in experiment [5].
For `CC(C)(c1ccc(OCC(=O)NC2CCN(c3cccc4c3C(=O)N(C3CCC(=O)NC3=O)C4=O)CC2)cc1)c1ccc(OCc2cccc(N3CCOCC3)n2)cc1` (stereo not drawn), the pIC50 in the experiment with CWR22R [1] is < 4.70. Besides, the Activity was 28.3% in experiment [2], < 10% in experiment [3], < 10% in experiment [4] and 48.7% in [5].
`CC(C)(c1ccc(OCCCCCCNc2cccc3c2C(=O)N(C2CCC(=O)NC2=O)C3=O)cc1)c1ccc(OCC(O)CCl)cc1` (stereo not drawn) gave a pIC50 in the experiment on CWR22R [1] of 5.19. In addition, the Activity in [2] is < 10%; in [3] it was 79.5%; in experiment [4], 16.7%; in experiment [5], 93%.
The matching figures for `CC(C)(c1ccc(OCCNc2cccc3c2C(=O)N(C2CCC(=O)NC2=O)C3=O)cc1)c1ccc(OCC(O)CCl)cc1` (stereo not drawn): 5.11, < 10%, 87.2%, 82.5% and 87%.

The term pIC50 denotes −log10 of the IC50, conventionally taken in molar units. Read a low pIC50 as a high IC50.

The values above are taken from ChEMBL document CHEMBL6153032, “Discovery of a highly potent, N-terminal domain-targeting degrader of AR-FL/AR-V7 for the treatment of prostate cancer” (Eur J Med Chem, 2025).
